The record followed here is US20240335443A1, “IMIDAZOLOPYRIDAZINE OR PYRAZOLOPYRIMIDINE COMPOUNDS AND COMPOSITIONS” (Anrui Biomedical Technology (Guangzhou) Co., Ltd., priority 2021, published 2024).

Test [1] has as its system IL-23 induced STAT3 in HEK-Blue™ IL-23 cells. Nature of the test: IL-23 induced STAT3 QUANTI-Blue reporter assay in HEK-Blue IL-23 cells. In kind it is cell-based. The note with it: IL-23 0.1 ng/mL, SEAP levels, class symbols, read-out: IL23 reporter assay (IC50 nM). A digest of the protocol:
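HEK-Blue IL-23 cells, 5000/well, preincubated with compound 1 h at 37 °C, then stimulated overnight with IL-23 at 0.1 ng/mL final. Supernatant mixed with QUANTI-Blue for 2 h at 37 °C and secreted SEAP read out.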
A general note: A reporter such as luciferase makes a cellular process visible.

Test [2] concerns the target T1, N-terminal His-tagged TYK2 pseudokinase domain (Homo sapiens, UniProt P29597).
T1 construct: the N-terminal His-tagged TYK2 pseudokinase domain; His (N); purchased Pharmaron
Description: TYK2 JH2 domain SPA binding assay. The settings on record: displacement of H3 probe (20 nM), 30 min room temperature; class symbols. The method, then:
TYK2 JH2 Domain Binding Assay
After incubating at room temperature for 30 min, the inhibition was calculated by the displacement of [3H] 3 binding as determined by scintillation counting. Dose-response curves were generated to determine the concentration required to inhibit H3 probe binding by […] (IC50).

The mark [3] stands for this setting: HEK-Blue IL-23, HEK-Blue IL-23 cells.

SMILES strings stand for the structures. Where two headings read alike, the source gives them in different places.

T1 sequence (P29597 589-875 limits assumed): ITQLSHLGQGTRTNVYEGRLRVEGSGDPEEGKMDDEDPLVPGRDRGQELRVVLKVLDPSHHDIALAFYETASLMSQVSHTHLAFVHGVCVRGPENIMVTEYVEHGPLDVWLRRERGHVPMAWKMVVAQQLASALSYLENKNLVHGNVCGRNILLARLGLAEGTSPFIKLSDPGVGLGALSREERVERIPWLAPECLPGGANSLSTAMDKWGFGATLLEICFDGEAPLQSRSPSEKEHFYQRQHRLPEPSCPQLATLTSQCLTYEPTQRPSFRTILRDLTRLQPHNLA

On to `CNc1cc(Nc2cccc3c2OCCC3)nn2c(C(=O)N[C@@H]3C[C@@H]4CCO[C@@H]43)cnc12` (racemic) [Compound 24], for which the IC50 in test [1] (setting [3]) and in test [2] was 10 to 100 nM in each case.

Regarding `CNc1cc(Nc2cccn(-c3ccccc3)c2=O)nn2c(C(=O)N[C@@H]3C[C@H]4CCO[C@H]43)cnc12` [Compound 46], the IC50 (in general, the concentration that inhibits the measured activity by half) is under 10 nM in test [1] (setting [3]) and 10 to 100 nM in test [2].

For the molecule `CNc1cc(Nc2cccc3c2OCCC3)nn2c(C(=O)NCc3ncco3)cnc12` [Compound 20], the IC50 in test [1] (setting [3]) and in test [2] was under 10 nM each time.

In the case of `[2H]C([2H])([2H])Nc1cc(Nc2cccn(C3CC4(CCCO4)C3)c2=O)nn2c(C(=O)N[C@@H]3C[C@H]4CCO[C@H]43)cnc12` (single isomer, unassigned) [Compound 98a], the IC50 in test [1] (setting [3]) and in test [2] was 10 to 100 nM each time.

For the molecule `CNc1cc(Nc2cccc3c2OCCC3)nc2c(C(=O)NC(C)c3ncco3)cnn12` (single isomer, unassigned) [Compound 23b], the half-maximal inhibitory concentration (IC50) was 10 to 100 nM in test [1] (HEK-Blue IL-23 cells) and under 10 nM in test [2].

On to `[2H]C([2H])([2H])Nc1cc(Nc2cccn([C@H]3C[C@H](OC([2H])([2H])[2H])C3)c2=O)nn2c(C(=O)N[C@@H]3C[C@H]4CCO[C@H]43)cnc12` [Compound 84], for which the half-maximal inhibitory concentration (IC50) in test [1] (setting [3]) and in test [2] was 10 to 100 nM in each case.

Consider `CNc1cc(Nc2cccn(C3CC4CCOC43)c2=O)nn2c(C(=O)N[C@@H]3C[C@@H]3F)cnc12` (single isomer, unassigned) [Compound 105d], for which the IC50 in test [1] (HEK-Blue IL-23 cells) was under 10 nM; in test [2], 10 to 100 nM.

For `CNc1cc(Nc2cccc3c2OCCC3)nc2c(C(=O)N[C@@H]3C[C@H]4CCO[C@H]43)cnn12` (racemic) [Compound 27], the IC50 in test [1] (setting [3]) and in test [2] was under 10 nM each time.

On to `[2H]C([2H])([2H])Nc1cc(Nc2cccn([C@@H]3C[C@H]4CCO[C@H]43)c2=O)nn2c(C(=O)N[C@@H]3C[C@@H]3F)cnc12` [Compound 106], for which the IC50 in test [1] (setting [3]) and in test [2] was under 10 nM each time.

Regarding `[2H]C([2H])([2H])Nc1cc(Nc2cccn(C3CC4(CCOC4)C3)c2=O)nn2c(C(=O)N[C@@H]3C[C@@H]3F)cnc12` (single isomer, unassigned) [Compound 102b], the IC50 in test [1] (HEK-Blue IL-23 cells) and in test [2] was 10 to 100 nM each time.

On to `[2H]C([2H])([2H])Nc1cc(Nc2cccn(-c3ccn(C([2H])([2H])[2H])n3)c2=O)nn2c(C(=O)N[C@@H]3C[C@@H]3F)cnc12` [Compound 59], for which the IC50 in test [1] (setting [3]) was under 10 nM; in test [2], 10 to 100 nM.

Turning to `CNc1cc(Nc2cccn(C3CCC4(CC3)COC4)c2=O)nn2c(C(=O)N[C@@H]3C[C@@H]3F)cnc12` [Compound 73], the IC50 in test [1] (setting [3]) is under 10 nM; in test [2], 10 to 100 nM.

Consider `CNc1cc(Nc2cccn(-c3ccccn3)c2=O)nc2c(C(=O)N[C@@H]3C[C@H]4CCO[C@H]43)cnn12` (racemic) [Compound 43], for which the IC50 in test [1] (setting [3]) and in test [2] was 10 to 100 nM each time.

Consider `CNc1cc(Nc2cccn(-c3ccccn3)c2=O)nn2c(C(=O)NC3CCc4conc43)cnc12` (stereo not shown) [Compound 7, N-(5,6-dihydro-4H-cyclopenta[c]isoxazol-6-yl)-8-(methylamino)-6-((2-oxo-2H-[1,2′-bipyridin]-3-yl)amino)imidazo[1,2-b]pyridazine-3-carboxamide], for which the IC50 in test [1] (setting [3]) and in test [2] was under 10 nM in each case.

With `CNc1cc(Nc2cccn([C@H]3CC[C@H](OC)CC3)c2=O)nn2c(C(=O)N[C@@H]3C[C@@H]3F)cnc12` [Compound 16, N-((1R,2S)-2-fluorocyclopropyl)-6-((1-((1r,4r)-4-methoxycyclohexyl)-2-oxo-1,2-dihydropyridin-3-yl)amino)-8-(methylamino)imidazo[1,2-b]pyridazine-3-carboxamide], the IC50 is under 10 nM in test [1] (setting [3]) and 10 to 100 nM in test [2].

`[2H]C([2H])([2H])Nc1cc(Nc2cccn(C3C[C@H]4CC[C@@H](C3)O4)c2=O)nn2c(C(=O)N[C@@H]3C[C@@H]3F)cnc12` (stereo partly shown) [Compound 80]: the IC50 in test [1] (setting [3]) and in test [2] was 10 to 100 nM in each case.

In the case of `[2H]C([2H])([2H])Nc1cc(Nc2cccn(C3CC4(CCCO4)C3)c2=O)nn2c(C(=O)N[C@@H]3C[C@@H]3F)cnc12` (single isomer, unassigned) [Compound 104a], the IC50 in test [1] (setting [3]) and in test [2] was 10 to 100 nM in each case.

In the case of `CNc1cc(Nc2cccn(CC3CCCO3)c2=O)nn2c(C(=O)N[C@@H]3C[C@H]4CCO[C@H]43)cnc12` (single isomer, unassigned) [Compound 62a], the IC50 lay within 10 to 100 nM in test [1] (setting [3]) and 100 to 1000 nM in test [2].

Take `CNc1cc(Nc2cccn(-c3ccn(C)n3)c2=O)nn2c(C(=O)NC(C)c3ncco3)cnc12` (single isomer, unassigned) [Compound 49a]: the IC50 in test [1] (HEK-Blue IL-23 cells) was under 10 nM; in test [2], 10 to 100 nM.

Regarding `CNc1cc(Nc2cccn(C3CC4CCOC43)c2=O)nn2c(C(=O)N[C@@H]3C[C@@H]3F)cnc12` (single isomer, unassigned) [Compound 105a], the IC50 in test [1] (setting [3]) fell in the range of 10 to 100 nM; in test [2], 100 to 1000 nM.

On to `CNc1cc(Nc2cccn([C@H]3CC[C@H](OC)CC3)c2=O)nn2c(C(=O)N[C@@H]3C[C@H]4CCO[C@H]43)cnc12` [Compound 63], for which the IC50 in test [1] (setting [3]) and in test [2] was under 10 nM in each case.

For the molecule `[2H]C([2H])([2H])OC1(C)CC(n2cccc(Nc3cc(NC)c4ncc(C(=O)N[C@@H]5C[C@H]6CCO[C@H]65)n4n3)c2=O)C1` (single isomer, unassigned) [Compound 93b], the IC50 in test [1] (HEK-Blue IL-23 cells) and in test [2] was 10 to 100 nM each time.

For the molecule `[2H]C([2H])([2H])Nc1cc(Nc2cccn(C3CCCC4(COC4)C3)c2=O)nn2c(C(=O)N[C@@H]3C[C@@H]3F)cnc12` (single isomer, unassigned) [Compound 75a], the half-maximal inhibitory concentration (IC50) in test [1] (HEK-Blue IL-23 cells) and in test [2] was 100 to 1000 nM in each case.

With `CNc1cc(Nc2cccn([C@H]3C[C@H](F)C3)c2=O)nn2c(C(=O)NC3CCn4ncnc43)cnc12` (mixture of isomers) [Compound 91], the IC50 in test [1] (setting [3]) and in test [2] was 10 to 100 nM each time.

For the molecule `CNc1cc(Nc2cccn([C@H]3C[C@H](OC)C3)c2=O)nn2c(C(=O)NC3CCC4CCOC43)cnc12` (single isomer, unassigned) [Compound 88b], the IC50 in test [1] (HEK-Blue IL-23 cells) and in test [2] was 100 to 1000 nM each time.

In the case of `CNc1cc(Nc2cccn(-c3ccccn3)c2=O)nc2c(C(=O)NC3CCn4ccnc43)cnn12` (stereo not shown) [Compound 18, N-(6,7-dihydro-5H-pyrrolo[1,2-a]imidazol-7-yl)-7-(methylamino)-5-((2-oxo-2H-[1,2′-bipyridin]-3-yl)amino)pyrazolo[1,5-a]pyrimidine-3-carboxamide], the IC50 in test [1] (setting [3]) and in test [2] was under 10 nM throughout.

On to `CNc1cc(Nc2cccc3c2OCCC3)nn2c(C(=O)NC(C)c3ncco3)cnc12` (single isomer, unassigned) [Compound 22a], for which the IC50 was at least 1000 nM in test [1] (HEK-Blue IL-23 cells) and over 1000 nM in test [2].

As to `[2H]C([2H])([2H])Nc1cc(Nc2cccn(C3CC4OCCC43)c2=O)nn2c(C(=O)N[C@@H]3C[C@H]4CCO[C@H]43)cnc12` (single isomer, unassigned) [Compound 94b], the IC50 in test [1] (HEK-Blue IL-23 cells) and in test [2] was 10 to 100 nM in each case.

As to `CNc1cc(Nc2cccn(C3C[C@H]4CC[C@@H](C3)O4)c2=O)nn2c(C(=O)N[C@@H]3C[C@@H]3F)cnc12` (single isomer, unassigned) [Compound 79b], the results for the IC50 in test [1] (HEK-Blue IL-23 cells) and in test [2] were under 10 nM and 10 to 100 nM, respectively.
